Assay results: patent publication US20220315895A1, “METHODS OF MAKING OLIGOPOTENT AND UNIPOTENT PRECURSORS” (Transfusion Health, LLC, priority 2019, published 2022)

How the values were obtained:
[1] = tested on: CD34+ cells from cord blood; assay: HSC Expansion Culture, 21 and 63 days (Example 38); assay type: cell-based, human; details: +Formula I Condition (Compound 1.010 8 μM)
Procedure: CD34+ cells from cord blood were purchased from STEMCELL Technologies. Primary human CD34+ cells were isolated by the supplier from cord blood samples using positive immunomagnetic separation techniques. Cells were thawed, gradually brought to room temperature, then washed.
Cells were placed in overnight culture in StemSpan with 100 ng/ml each of FLT3L, TPO, SCF, and IL-6. Eighteen hours later (day 1), cells were counted and immunophenotyped (flow cytometry on an Invitrogen Attune N×T cytometer).
A portion of these cells were washed and placed directly into various “Differentiation Cultures,” described below. The remainder of cells were placed into “HSC Expansion Culture,” described here. Approximately 1000 live cells were plated into duplicate 25 cm^2 flasks; exact cell numbers dispensed per flask were quantified with flow cytometry for later calculations. […]
Following 21 and 63 days in Expansion Culture, prior to passaging or CD34 re-enrichment, a sample was taken from each flask for analysis of phenotypes (flow cytometry on an Invitrogen Attune N×T cytometer). Cell numbers calculated for these analyses take into account passaging of cells on prior days. Fold expansion of CD34+ cells was calculated by dividing the cell numbers at later days (21 and 63) by the number of CD34+ cells quantified at day 1.

[2] = tested on: CD15+ cells derived from cord blood CD34+ cells; assay: Progenitor Differentiation and Maturation Cultures, CD15+ output (Example 42); assay type: cell-based, human
From the text: Progenitor Differentiation Cultures were initiated following 14, 28, 42 and 64 days of CD34 expansion culture. Differentiation Sequences were created by culturing cells in a series of Differentiation Medias, for six or seven days. Differentiation Medias were made with purified cytokines: SCF, G-CSF, GM-CSF, FLT3L, IL-3, IL-6, TPO (all from R&D Systems), prepared in either StemSpan SFEM I or RPMI+10% FBS, as indicated in Table 12A and Table 12B below. Approximately 5,000-10,000 CD34+ cells were seeded into the “Day 0 media” indicated in Table 13 in 12-well plates at the beginning of the Differentiation Culture. At day two or three, a portion of cells was seeded into the subsequent media in the Sequence. If media was to be changed to a different Differentiation Media at a given day, the cells were first placed into 15 mL conical tubes and centrifuged for 5 minutes at 300×g. All supernatant was removed prior to resuspension in new media and re-plating. At days 6 or 7, as indicated in Table 13 and Table 15, a portion of cells was analyzed. […]
A number of quantities were calculated to describe the output of Differentiation Culture and the combined effects of Expansion and Differentiation Culture. These quantities and their relationships are as described in Example 41 and depicted in FIG. 68.

## CC(C)(C)C(=O)Nc1ccc2c(c1)C(O)c1ccccc1-2 (stereo not shown) [Compound 1.010]
[1]; 21 days
  fold expansion of CD34+ cells: 600 fold
[1]; 63 days
  fold expansion of CD34+ cells: 244,000 fold
[2]; 64 days of CD34+ expansion in +Formula I conditions, condition TT
  fold increase of CD15+ cell output at days six or seven of Differentiation Culture: about 43,000 fold
[2]; expanded in +Formula I conditions 14, 28 and 42 days, Medias A, B, C, H or T, by 6 to 7 days
  CD15+ cells as percentage of total live cells: > 47%
